The values that follow come from patent publication EP4624465A1, “COMPOUND SERVING AS DDR1 KINASE INHIBITOR, AND MEDICINE” (Nippon Shinyaku Co., Ltd., priority 2022, dated 2024).

Each structure is given as a SMILES string. pIC50: −log10 of the molar value.

DDR1 kinase, sequence (Q08345 19-876 isoform Q08345-2 limits assumed): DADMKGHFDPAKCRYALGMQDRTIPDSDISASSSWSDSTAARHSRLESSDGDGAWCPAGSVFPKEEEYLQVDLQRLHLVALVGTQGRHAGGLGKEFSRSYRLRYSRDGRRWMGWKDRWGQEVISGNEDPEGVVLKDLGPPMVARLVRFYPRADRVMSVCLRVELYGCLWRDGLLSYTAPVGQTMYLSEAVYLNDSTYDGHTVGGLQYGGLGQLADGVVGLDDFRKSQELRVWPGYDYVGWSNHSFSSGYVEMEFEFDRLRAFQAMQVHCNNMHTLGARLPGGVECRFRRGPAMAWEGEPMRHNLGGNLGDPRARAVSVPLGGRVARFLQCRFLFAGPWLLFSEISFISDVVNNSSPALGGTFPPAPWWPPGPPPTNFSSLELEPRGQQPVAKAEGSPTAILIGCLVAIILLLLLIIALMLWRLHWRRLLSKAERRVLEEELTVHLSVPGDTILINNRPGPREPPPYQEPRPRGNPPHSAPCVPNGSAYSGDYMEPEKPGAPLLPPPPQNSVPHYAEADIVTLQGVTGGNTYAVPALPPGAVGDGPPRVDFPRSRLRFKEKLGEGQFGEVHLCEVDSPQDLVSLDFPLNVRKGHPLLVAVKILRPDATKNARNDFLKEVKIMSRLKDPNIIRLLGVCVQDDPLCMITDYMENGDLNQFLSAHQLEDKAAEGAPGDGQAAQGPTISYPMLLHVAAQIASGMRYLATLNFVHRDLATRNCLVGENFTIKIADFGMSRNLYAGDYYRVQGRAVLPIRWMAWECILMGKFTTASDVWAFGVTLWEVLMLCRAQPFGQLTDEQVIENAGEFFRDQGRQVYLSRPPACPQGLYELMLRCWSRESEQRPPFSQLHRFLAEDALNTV

This experiment has as its target DDR1 kinase (Homo sapiens, UniProt Q08345). In words: Evaluation of DDR1 kinase inhibition (LANCE Ultra TR-FRET kinase assay). Format: biochemical. Further details: purchased Carna Biosciences 08-113. The settings on record: DDR1 protein 0.5 nM, LANCE Ultra ULight-poly GAT substrate, 2 hours at room temperature, duplicate; read-out: DDR-1 IC50. (In general: In TR-FRET formats the signal depends on donor and acceptor labels being close together.)
As to `CC[C@@H]1CCCN1C(=O)Cn1nc(C2CN(C(=O)c3ccnc(N)c3)C2)c2ccccc21` [Compound E-222, 2-{3-[1-(2-aminopyridine-4-carbonyl)azetidin-3-yl)-1H-indazol-1-yl}-1-[(2R)-2-ethylpyrrolidin-1-yl]ethan-1-one], the pIC50 (commonly −log10 of the IC50, conventionally taken in molar units) was 8.68.

Regarding `Nc1cc(C(=O)N2CC(c3nn(CC(=O)N4CCC5CC54)c4ccccc34)C2)ccn1` (stereo not shown) [Compound E-223, 2-{3-[1-(2-aminopyridine-4-carbonyl)azetidin-3-yl]-1H-indazol-1-yl}-1-{2-azabicyclo[3.1.0)hexan-2-yl}ethan-1-one], the pIC50 is 7.09.

On to `Nc1cc(C(=O)N2CC(c3nn(CC(=O)NC(C4CC4)C4CC4)c4ccccc34)C2)ccn1` [Compound E-224, 2-{3-[1-(2-aminopyridine-4-carbonyl)azetidin-3-yl]-1H-indazol-1-yl}-N-(dicyclopropylmethyl)acetamide], for which the pIC50 is 7.74.

Regarding `Nc1cc(C(=O)N2CC(c3nn(CC(=O)NCCOC(F)(F)F)c4ccccc34)C2)ccn1` [Compound E-227, 2-{3-[1-(2-aminopyridine-4-carbonyl)azetidin-3-yl)-1H-indazol-1-yl}-N-[2-(trifluoromethoxy)ethyl]acetamide], the pIC50 is 7.22.

As to `CO[C@H]1CCN(C(=O)Cn2nc(C3CN(C(=O)c4cc(N)ncc4F)C3)c3ccccc32)C1` [Compound E-230, 2-{3-[1-(2-amino-5-fluoropyridine-4-carbonyl)azetidin-3-yl]-1H-indaaol-1-yl}-1-[(3S)-3-methoxypyrrolidin-1-yl]ethan-1-one], the pIC50 is 7.27.

Regarding `CO[C@@H]1CCN(C(=O)Cn2nc(C3CN(C(=O)c4cc(N)ncc4F)C3)c3ccccc32)C1` [Compound E-231, 2-{3-[1-(2-amino-5-fluoropyridine-4-carbonyl)azetidin-3-yl]-1H-indazol-1-yl}-1-1(3R)-3-methoxypyrrolidin-1-yllethan-1-one], the pIC50 is 7.52.

Regarding `Nc1cc(C(=O)N2CC(c3nn(CC(=O)N4CCC5(COC5)C4)c4ccccc34)C2)c(F)cn1` [Compound E-232, 2-{3-[1-(2-amino-5-fluoropyridine-4-carbonyl)azetidin-3-yl]-1H-indazol-1-yl}-1-{2-oxa-6-azaspiro[3.4]octan-6-yl}ethan-1-one], the pIC50 was 7.42.

With `Nc1cc(C(=O)N2CC(c3nn(CC(=O)NC4CCOCC4)c4ccccc34)C2)ccn1` [Compound E-233, 2-{3-[1-(2-aminopyridine-4-carbonyl)azetidin-3-yl]-1H-indazol-1-yl}-N-(oxan-4-yl)acetamide], the pIC50 was 6.30.

As for `CC(C)(NC(=O)Cn1nc(C2CN(C(=O)c3ccnc(N)c3)C2)c2ccccc21)C1CC1` [Compound E-234, 2-{3-[1-(2-aminopyridine-4-carbonyl)azetidin-3-yl]-1H-indazol-1-yl}-N-(2-cyclopropylpropan-2-yl)acetamide], the pIC50 is 8.10.

Regarding `Nc1cc(C(=O)N2CC(c3nn(CC(=O)NC4CCC(F)(F)CC4)c4ccccc34)C2)ccn1` [Compound E-235, 2-{3-[1-(2-aminopyridine-4-carbonyl)azetidin-3-yl]-1H-indazol-1-yl}-N-(4,4-difluorocyclohexyl)acetamide], the pIC50 is 7.23.

Turning to `Nc1cc(C(=O)N2CC(c3nn(CC(=O)NC4CC5CCC4C5)c4cccc(F)c34)C2)ccn1` (stereo not shown) [Compound E-238, 2-{3-[1-(2-aminopyridine-4-carbonyl)azetidin-3-yl]-4-fluoro-1H-indazol-1-yl}-N-{bicyclo[2.2.1]heptan-2-yl}acetamide], the pIC50 was 8.25.

`Nc1cc(C(=O)N2CC(c3nn(CC(=O)NC45CC(C4)C5)c4cccc(F)c34)C2)ccn1` [Compound E-239, 2-{3-[1-(2-aminopyridine-4-carbonyl)azetidin-3-yl]-4-fluoro-1H-indazol-1-yl}-N-{bicyclo[1.1.1]pentan-1-yl}acetamide]: the pIC50 is 8.48.

In the case of `Nc1nccc(C(=O)N2CC(c3nn(CC(=O)N4CCC[C@H]4C(F)(F)F)c4ccc(F)cc34)C2)n1` [Compound E-241, 2-{3-[1-(2-aminopyrimidine-4-carbonyl)azetidin-3-yl]-5-fluoro-1H-indazol-1-yl}-1-[(2S)-2-(trifluoromethyl)pyrrolidin-1-yl]ethan-1-one], the pIC50 is 8.37.

For `CCN(CC(F)(F)F)C(=O)Cn1nc(C2CN(C(=O)c3cc(N)ncc3F)C2)c2ccccc21` [Compound E-249, 2-{3-[1-(2-amino-5-fluoropyridine-4-carbonyl)azetidin-3-yl]-1H-indazol-1-yl}-N-ethyl-N-(2,2,2-trifluoroethyl)acetamide], the pIC50 is 8.46.

In the case of `CN(CC1CC(F)(F)C1)C(=O)Cn1nc(C2CN(C(=O)c3cc(N)ncc3F)C2)c2ccccc21` [Compound E-256, 2-{3-[1-(2-amino-5-fluoropyridine-4-carbonyl)azetidin-3-yl]-1H-indazol-1-yl]-N-[(3,3-difluorocyclobutyl)methyl]-N-methylacetamide], the pIC50 was 8.70.

Consider `Nc1cc(C(=O)N2CC(c3nn(CC(=O)N4CC5CCC(C4)O5)c4ccccc34)C2)c(F)cn1` [Compound E-258, 2-{3-[1-(2-amino-5-fluoropyridine-4-carbonyl)azetidin-3-yl]-1H-indazol-1-yll-1-18-oxa-3-azabicyclo[3.2.1}octan-3-yl]ethan-1-one], for which the pIC50 is 7.13.

In the case of `Nc1cc(C(=O)N2CC(c3nn(CC(=O)N4CCCC(C(F)(F)F)C4)c4ccccc34)C2)c(F)cn1` (stereo not shown) [Compound E-259, 2-{3-[1-(2-amino-5-fluoropyridine-4-carbonyl)azetidin-3-yl}-1H-indazol-1-yl}-1-[3-(trifluoromethyl)piperidin-1-yl]ethan-1-one], the pIC50 is 8.68.

Turning to `CN1CCN(C(=O)Cn2nc(C3CN(C(=O)c4cc(N)ncc4F)C3)c3ccccc32)CC1` [Compound E-260], the pIC50 was 6.62.

Take `CN(CCN1CCOCC1)C(=O)Cn1nc(C2CN(C(=O)c3cc(N)ncc3F)C2)c2ccccc21` [Compound E-264]: the pIC50 was 6.77.

As for `C[C@@H]1CCC[C@H](C)N1C(=O)Cn1nc(C2CN(C(=O)c3cc(N)ncc3F)C2)c2ccccc21` [Compound E-266, 2·{3-[1-(2-amino-5-fluoropyridine-4-carbonyl)azetidin-3-yl]-1H-indazol-1-yl}-1-[(2R,68)-2,6-dimethylpiperidin-1-yl]ethan-1-one], the pIC50 is 8.35.

Take `CC(C)N(C(=O)Cn1nc(C2CN(C(=O)c3cc(N)ncc3F)C2)c2ccccc21)C(C)C` [Compound E-267, 2-{3-[1-(2-amino-5-fluoropyridine-4-carbonyl)azetidin-3-yl]-1H-indazol-1-yl}-N,N-bis(propan-2-yl)acetamide]: the pIC50 was 8.21.

`CN(C(=O)Cn1nc(C2CN(C(=O)c3cc(N)ncc3F)C2)c2ccccc21)C(C)(C)C` [Compound E-268, 2-{3-[1-(2-amino-5-fluoropyridine-4-carbonyl)azetidin-3-yl]-1H-indazol-1-yl}-N-tert-butyl-N-methylacetamide]: the pIC50 is 8.41.

Consider `CC1(c2nn(CC(=O)N3CCC[C@H]3C(F)(F)F)c3ccccc23)CN(C(=O)c2cc(N)ncc2F)C1` [Compound E-271, 2-{3-[1-(2-amino-5-fluoropyridine-4-carbonyl)-3-methylazetidin-3-yl]-1H-indazol-1-yl}-1-[(2S)-2-(trifluoromethyl)pyrrolidin-1-yl]ethan-1-one], for which the negative logarithm of the IC50 (pIC50) is 8.40.

For `CN(CC(F)(F)F)C(=O)Cn1nc(C2(C)CN(C(=O)c3ccnc(N)c3)C2)c2ccccc21` [Compound E-273, 2-{3-[1-(2-aminopyridine-4-carbonyl)-3-methylazetidin-3-yl]-1H-indazol-1-yl}-N-methyl-N-(2,2,2-trifluoroethyl)acetamide], the pIC50 was 7.22.

For `CN(CC(F)(F)F)C(=O)Cn1nc(C2CN(C(=O)c3nc(N)ncc3F)C2)c2cc(F)ccc21` [Compound E-278, 2-{3-[1-(2-amino-5-fluoropyrimidine-4-carbonyl)azetidin-3-yl]-5-fluoro-1H-indazol-1-yl}-N-methyl-N-(2,2,2-trifluoroethyl)acetamide], the pIC50 is 8.16.

With `Nc1cc(C(=O)N2CC(c3nn(CC(=O)N4CCC[C@H]4C(F)(F)F)c4cc(F)c(F)cc34)C2)c(F)cn1` [Compound E-280], the pIC50 was 9.05.

Regarding `Nc1cc(C(=O)N2CC(O)(c3nn(CC(=O)N4CCC[C@H]4C(F)(F)F)c4ccccc34)C2)c(F)cn1` [Compound E-281, 2-{3-[1-(2-amino-5-fluoropyridine-4-carbonyl)-3-hydroxyazetidin-3-yl]-1H-indazol-1-yl}-1-[(28)-2-(trifluoromethyl)pyrrolidin-1-yl]ethan-1-one], the pIC50 is 7.96.

`CN(CC(F)(F)F)C(=O)Cn1nc(C2CN(C(=O)c3ccnc(N)n3)C2)c2cc(F)c(F)cc21` [Compound E-282, 2-{3-[1-(2-aminopyrimidine-4-carbonyl)azetidin-3-yl]-5,6-difluoro-1H-indazol-1-yl}-N-methyl-N-(2,2,2-trifluoroethyl)acetamide]: the pIC50 was 7.28.

On to `Nc1nccc(C(=O)N2CC(c3nn(CC(=O)N4CCC[C@H]4C(F)(F)F)c4cc(F)c(F)cc34)C2)n1` [Compound E-283, 2-{3-[1-(2-aminopyrimidine-4-carbonyl)azetidin-3-yl]-5,6-diffuoro-1H-indazol-1-yl}-1-[(2S)-2-(trifluoromethyl)pyrrolidin-1-yl}ethan-1-one], for which the pIC50 is 8.35.

Take `CN(CC(F)(F)F)C(=O)Cn1nc(C2CN(C(=O)c3ccnc(N)n3)C2)c2ccc(F)cc21` [Compound E-284, 2-{3-[1-(2-aminopyrimidine-4-carbonyl)azetidin-3-yl]-6-fluoro-1H-indazol-1-yl}-N-methyl-N-(2,2,2-trifluoroethyl)acetamide]: the negative logarithm of the IC50 (pIC50) is 7.27.

For `Nc1cc(C(=O)N2CC(F)(c3nn(CC(=O)N4CCC[C@H]4C(F)(F)F)c4ccccc34)C2)c(F)cn1` [Compound E-285, 2-(3-[1-(2-amino-5-fluoropyridine-4-carbonyl)-3-fluoroazetidin-3-yl]-1H-indazol-1-yl}-1-[(2S)-2-(trifluoromethyl)pyrrolidin-1-yl]ethan-1-one], the pIC50 was 8.89.
